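Five compound concentrations were applied to cells in 96-well plates for 48 hours; endpoints were derived by simple linear interpolation of the resulting dose-response curve. TGI: concentration producing complete growth inhibition.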
Legend:
Assay in all cases: growth of human tumour cells (NCI), 48 h
[1] = system: RPMI-8226 leukemia
[2] = system: A498 renal
[3] = system: HOP-18 NSCLC
[4] = system: MOLT-4 leukemia
[5] = system: DMS 114 small cell lung
[6] = system: M19-MEL melanoma
[7] = system: U251 CNS
[8] = system: OVCAR-3 ovarian
[9] = system: SN12C renal
[10] = system: COLO 205 colon
[11] = system: LOX IMVI melanoma
[12] = system: DMS 273 small cell lung
[13] = system: EKVX NSCLC
[14] = system: K-562 leukemia
[15] = system: OVCAR-4 ovarian
[16] = system: RXF 393 renal
[17] = system: SNB-75 CNS
[18] = system: CCRF-CEM leukemia
[19] = system: SNB-78 CNS
[20] = system: IGROV1 ovarian
[21] = system: HT29 colon
[22] = system: KM20L2 colon
[23] = system: HCT-116 colon
[24] = system: UACC-62 melanoma
[25] = system: SK-MEL-28 melanoma
[26] = system: SF-539 CNS
[27] = system: SF-295 CNS
[28] = system: SW-620 colon
[29] = system: A549 NSCLC
[30] = system: UACC-257 melanoma
[31] = system: HCT-15 colon
[32] = system: SK-MEL-5 melanoma
[33] = system: M14 melanoma
[34] = system: NCI-H23 lung
[35] = system: TK-10 renal
[36] = system: LXFL 529 NSCLC
[37] = system: HL-60(TB) leukemia
[38] = system: NCI-H460 lung
[39] = system: OVCAR-8 ovarian
[40] = system: SK-OV-3 ovarian
[41] = system: ACHN renal
[42] = system: SNB-19 CNS
[43] = system: XF 498 CNS
[44] = system: MALME-3M melanoma
[45] = system: DLD-1 colon
[46] = system: SK-MEL-2 melanoma
[47] = system: CAKI-1 renal
[48] = system: NCI-H226 lung
[49] = system: 786-0 renal
[50] = system: KM12 colon
[51] = system: UO-31 renal
[52] = system: SR leukemia
[53] = system: OVCAR-5 ovarian

Measured: TGI

CCOC(=O)COc1ccc(OC)c2c1C(=O)CCC2
> 100 µM: [1] | [2] | [3] | [4] | [5] | [6] | [7] | [8] | [9] | [10] | [11] | [12] | [13] | [14] | [15] | [16] | [17] | [18] | [19] | [20] | [21] | [22] | [23] | [24] | [25] | [26] | [27] | [28] | [29] | [30] | [31] | [32] | [33] | [34] | [35] | [36] | [37] | [38] | [39] | [40] | [41] | [42] | [43]

C[N+](C)(C)CC1CCCC(C[N+](C)(C)C)C1=NO (stereo unspecified)
> 100 µM: [1] | [3] | [44] | [4] | [6] | [45] | [7] | [8] | [9] | [46] | [10] | [12] | [13] | [14] | [15] | [16] | [47] | [17] | [19] | [20] | [21] | [22] | [23] | [24] | [48] | [25] | [49] | [26] | [27] | [28] | [50] | [29] | [30] | [31] | [32] | [33] | [34] | [51] | [52] | [53] | [35] | [36] | [38] | [39] | [40] | [41] | [42] | [43]
